From US9657059B2, “Immune system modulators” (Canimguide Therapeutics AB, priority 2013, dated 2017)

Experiments:
[1] = system: Artificial Cell Surface (ACS): biotinylated cell surface proteins of PBMCs; assay: Adsorption of enzyme-fragmented dHSA peptides by artificial cell surface (ACS) column, MALDI-TOF; assay type: binding, human
Protocol: An artificial cell surface (ACS) was prepared by selectively biotinylating cell surface structures of PBMCs and after lysing the cells binding the biotinylated proteins to streptavidin columns (see Example 17 for further description of the ACS). The mixture of peptides obtained after trypsination was adsorbed by ACS and the binding peptides were identified by comparing adsorbed and unabsorbed peptide solutions using the MALDI TOF ms technique. Based on their degree of binding and their spatial relation to previously identified immunoregulatory structures, four new peptides were selected to be synthesized and investigated for their immunoregulatory activity, primarily the effect on the proliferative response to IL-2.
First, biotinylated cell surface proteins were prepared. Buffy coats generated from 450 ml blood each were collected from 4 healthy donors. Erythrocytes were removed by sedimentation on 2% dextran T500 solution (Amersham Pharmacia Biotech AB, Uppsala Sweden) in 0.9% NaCl. Mononuclear cells (PBMC) were then isolated by Ficoll-Paque Plus (GE Healthcare BioscienceAB Sweden) density gradient centrifugation. The PBMCs were then suspended in phosphate buffered saline (PBS) containing Ca and Mg (GIBCO) at a concentration of 10×10^6/ml. EZ Link Sulfo-NHS-biotin (Pierce USA) was added at a final concentration of 0.2 mg/ml and the mixture incubated on a shaker at room temperature for 10 min. Excess biotin was then removed by washing the PBMC in PBS. Biotinylated PBMC were then lysed by adding 1.0 ml ice-cold lysing buffer (50 mM Tris-HCL, pH 7.5, with 0.15 MNaCl, 5 mM MgCl2 containing 100 mM Octyl glucoside and 1 mM Phenylmethylsulfonyl fluoride) per 2×10^7 pelleted cells with gentle shaking, then incubated for 30 min. on ice. Debris was removed by centrifugation at 5000×g at 4° C. for 10 min and the supernatants were collected and pooled from all four donors. The lysate was then stored at −70° C. in polypropylene plastic tubes.
This amount of lysate corresponds to 36×10^7 mononuclear cells. It was added to a 1 ml Hitrap Streptavidin HP affinity column (Amersham Biosciences). To block possible remaining free biotin, 5 ml of 0.1 M glycine (Sigma) was added to the column. Unsaturated streptavidin on the column was then reacted with 150 ug biotin (Sigma) in binding buffer. The column was carefully washed with PBS and stored in PBS with 0.1% NaN3 at 4° C. until use.
27 ml biotinylated cell lysate in binding buffer (corresponding to 54×10^7 mononuclear cells) was added to 1.5 ml washed Streptavidin Sepharose HP (Amersham Biosciences). To block possible remaining free biotin, 25 ml of 0.1 M glycine (Sigma) was added to the Streptavidin Sepharose. Unsaturated streptavidin was then reacted with 225 ug biotin (Sigma) in binding buffer. The Streptavidin Sepharose was carefully washed in PBS. One ml of the biotinylated cell lysate coupled Streptavidin Sepharose was then packed in an empty column (Tricorn Empty High Performance Column, Amersham Bioscience) and washed with phosphate buffered saline (PBS) containing Ca^2+ and Mg^2+ (GIBCO).
Digestion with trypsin or ASP-N was performed as follows. Freeze dried dHSA (0.5 mg) was reconstituted in 25 mM NH4HCO3, pH 8, containing […] sequencing grade modified trypsin (Promega Corporation, WI) or […] Endoproteinase ASP-N(Sigma) and incubated at 37° C. overnight. To remove unfragmented albumin and enzyme, the sample was ultra filtered through an Amicon Ultra 4 (mw cut-off of 5000) or a Centriplus (mw cut-off 10000) centrifugal filter (Millipore AB, Solna, Sweden). The filtrate, containing fragmented dHSA without enzymes, was collected and diluted with PBS with Ca and Mg (GIBCO).
dHSA was trypsinated, and the mixture of peptides obtained after trypsination was adsorbed by ACS. Two ml of enzyme-fragmented dHSA in PBS, corresponding to a total of 0.2 mg protein, was passaged over the ACS column. […]

immune cells = assay: Binding of albumin fragments to immune cells on the Artificial Cell Surface column (ACS), MALDI-TOF; design: species or system human
Protocol: The existence of albumin sequences having neo-structures that bind to immune cells was identified using a human ex vivo model based on affinity chromatography over an “Artificial Cell Surface Column” (ACS). The effect of different albumin fragments on IL-2 induced proliferation of human immune cells (PBMCs) was analyzed in the ACS system (see Example 9). Briefly, PBMCs were cultured for seven days in the presence of IL-2 and the various synthetically prepared albumin fragments. Proliferation was measured as incorporation of ^3H thymidine during the final 18 hours.
Some of these fragments can have immunomodulatory activity similar to P3028, can bind to immune cells similar to P3028, and/or can bind to immunomodulatory antibodies that recognized P3028. […] Table 1 provides a listing of trypsin-generated fragments of albumin, which bind to immune cells in the ACS system, as detected by MALDI-TOF analysis.
[…] Again, the immune cell binding peptides were identified by comparing adsorbed and unadsorbed peptide solutions using the MALDI TOF technique.

[2] = trypsin-generated albumin fragments
[3] = trypsin-generated albumin fragments, MALDI-TOF
[4] = Asp-N-generated albumin fragments
[5] = Asp-N-generated fragments of denatured human serum albumin, MALDI TOF

Substance: 198 (RPCFSALEVDETYVPK; listed as Homo sapiens) [compound 198]
- Percent Absorbed [1, 2]: 42%
- Percent Absorbed (immune cells; [3]): 42%

Substance: 195 (KVPQVSTPTLVEVSR; listed as Homo sapiens) [compound 195]
- Percent Absorbed [1, 2]: 64%
- Percent Absorbed (immune cells; [3]): 64%

Substance: 209 (NECFLQHK; listed as Homo sapiens) [compound 209]
- Percent Absorbed [1, 2]: 77%
- Percent Absorbed (immune cells; [3]): 22%

Substance: 210 (QNCELFEQLGEYK; listed as Homo sapiens) [compound 210]
- Percent Absorbed [1, 2]: 20%
- Percent Absorbed (immune cells; [3]): 20%

Substance: 227 (VFLGMFLYEYARRHPDYSVVLLLRLAKTYETTLEKCCAAA; listed as Homo sapiens) [compound 227]
- Percent Absorbed [1, 4]: 100%
- Percent Absorbed (immune cells; [5]): 100%

Substance: 194 (KYLYEIAR; listed as Homo sapiens) [compound 194]
- Percent Absorbed [1, 2]: 71%
- Percent Absorbed (immune cells; [3]): 71%

Substance: 217 (DHVKLVNEVTEFAKTCVA; listed as Homo sapiens) [compound 217]
- Percent Absorbed [1, 4]: 100%
- Percent Absorbed (immune cells; [5]): 100%

Substance: 229 (RVTKCCTESLVNRRPCFSALEVDETYVPKEFNAETFTFHA; listed as Homo sapiens) [compound 229]
- Percent Absorbed [1, 4]: 100%
- Percent Absorbed (immune cells; [5]): 100%

Substance: 228 (LGEENFKALVLIAFAQYLQQCPFEDHVKLVNEVTEFAKTCVA; listed as Homo sapiens) [compound 228]
- Percent Absorbed [1, 4]: 100%
- Percent Absorbed (immune cells; [5]): 100%

Substance: 196 (VFDEFKPLVEEPQNLIK; listed as Homo sapiens) [compound 196]
- Percent Absorbed [1, 2]: 60%
- Percent Absorbed (immune cells; [3]): 60%

Substance: 206 (CCTESLVNR; listed as Homo sapiens) [compound 206]
- Percent Absorbed [1, 2]: 26%
- Percent Absorbed (immune cells; [3]): 26%

Substance: 199 (FQNALLVR; listed as Homo sapiens) [compound 199]
- Percent Absorbed [1, 2]: 41%
- Percent Absorbed (immune cells; [3]): 41%

Substance: 223 (YSVVLLLRLAKTYETTLEKCCAAADPHECYAKVF; listed as Homo sapiens) [compound 223]
- Percent Absorbed [1, 4]: 100%
- Percent Absorbed (immune cells; [5]): 100%

Substance: 208 (AVMDDFAAFVEK; listed as Homo sapiens) [compound 208]
- Percent Absorbed [1, 2]: 23%
- Percent Absorbed (immune cells; [3]): 23%

Substance: 219 (DRVTKCCTESLVNRRPCFSALEV; listed as Homo sapiens) [compound 219]
- Percent Absorbed [1, 4]: 87%
- Percent Absorbed (immune cells; [5]): 87%

Substance: 211 (QEPERNECFLQHK; listed as Homo sapiens) [compound 211]
- Percent Absorbed [1, 2]: 18%
- Percent Absorbed (immune cells; [3]): 18%

Substance: 220 (DETYVPKEFNAETFTHA; listed as Homo sapiens) [compound 220]
- Percent Absorbed [1, 4]: 86%
- Percent Absorbed (immune cells; [5]): 86%

Substance: 197 (VPQVSTPTLVEVSR; listed as Homo sapiens) [compound 197]
- Percent Absorbed [1, 2]: 59%
- Percent Absorbed (immune cells; [3]): 59%

Substance: 213 (FKDLGEENFK; listed as Homo sapiens) [compound 213]
- Percent Absorbed [1, 2]: 8%
- Percent Absorbed (immune cells; [3]): 8%

Substance: 225 (ICTLSEKERQIKKQTALVELVKHKPKATKEQLKAVM; listed as Homo sapiens) [compound 225]
- Percent Absorbed [1, 4]: 100%
- Percent Absorbed (immune cells; [5]): 100%

Substance: 207 (QEPERNECFLQHK; listed as Homo sapiens) [compound 207]
- Percent Absorbed [1, 2]: 25%
- Percent Absorbed (immune cells; [3]): 25%

Substance: 204 (CCAAADPHECYAK; listed as Homo sapiens) [compound 204]
- Percent Absorbed [1, 2]: 32%
- Percent Absorbed (immune cells; [3]): 32%

Substance: 202 (LCTVATLR; listed as Homo sapiens) [compound 202]
- Percent Absorbed [1, 2]: 35%
- Percent Absorbed (immune cells; [3]): 35%

Substance: 230 (YLSVVLNQLCVLHEKTPVSDRVTKCCCTESLVNRRPFSALEV; listed as Homo sapiens) [compound 230]
- Percent Absorbed [1, 4]: 37%
- Percent Absorbed (immune cells; [5]): 37%

Substance: 200 (SLHTLFGDK; listed as Homo sapiens) [compound 200]
- Percent Absorbed [1, 2]: 36%
- Percent Absorbed (immune cells; [3]): 36%

Substance: 215 (LDELRDEGK; listed as Homo sapiens) [compound 215]
- Percent Absorbed [1, 2]: 2%
- Percent Absorbed (immune cells; [3]): 2%

Substance: 203 (YLYEIAR; listed as Homo sapiens) [compound 203]
- Percent Absorbed [1, 2]: 34%
- Percent Absorbed (immune cells; [3]): 34%

Substance: 201 (LKECCEKPLLEK; listed as Homo sapiens) [compound 201]
- Percent Absorbed [1, 2]: 36%
- Percent Absorbed (immune cells; [3]): 36%

Substance: 224 (KLCTVATLRETYGEMADCCAKQEPERNECFLQHK; listed as Homo sapiens) [compound 224]
- Percent Absorbed [1, 4]: 100%
- Percent Absorbed (immune cells; [5]): 100%

Substance: 212 (VHTECCHGDLLECADDR; listed as Homo sapiens) [compound 212]
- Percent Absorbed [1, 2]: 13%
- Percent Absorbed (immune cells; [3]): 13%

Substance: 218 (DDKETCFAEEGKKLVAASQAALGL; listed as Homo sapiens) [compound 218]
- Percent Absorbed [1, 4]: 100%
- Percent Absorbed (immune cells; [5]): 100%

Substance: 205 (AAFTECCQAADK; listed as Homo sapiens) [compound 205]
- Percent Absorbed [1, 2]: 29%
- Percent Absorbed (immune cells; [3]): 29%

Substance: 214 (YICENQDSISSK; listed as Homo sapiens) [compound 214]
- Percent Absorbed [1, 2]: 3%
- Percent Absorbed (immune cells; [3]): 3%

Substance: 216 (DDNPNLPR; listed as Homo sapiens) [compound 216]
- Percent Absorbed [1, 2]: 1%
- Percent Absorbed (immune cells; [3]): 1%

Substance: 221 (DSISSKLKECCEKPLLEKSHCIAEVEN; listed as Homo sapiens) [compound 221]
- Percent Absorbed [1, 4]: 65%
- Percent Absorbed (immune cells; [5]): 65%

Substance: 222 (DKLCTVATLRETYGEM; listed as Homo sapiens) [compound 222]
- Percent Absorbed [1, 4]: 65%
- Percent Absorbed (immune cells; [5]): 65%

Substance: 226 (LAKYICENQDSISSKLKECCEKPLLEKHCIAEVEN; listed as Homo sapiens) [compound 226]
- Percent Absorbed [1, 4]: 100%
- Percent Absorbed (immune cells; [5]): 100%
